Assay results published in US20200323797A1, “Treatment of Obesity-related Conditions” (INSTITUTO DE MEDICINA MOLECULAR, priority 2017, published 2020).
Several values for one entry are separate records, joined by “and”; a condition that tells them apart may be missing. Identical values can stand only once. Counter-ions that a name gives are not always drawn.

Key:
Slc6a2 = target: T1, Slc6a2 (Mus musculus, UniProt O55192); assay: NE uptake by SAMs in SCG explant cultures, SLC6A2 blocker; type: cell-based; details: 100 nM Nisoxetine hydrochloride
T1 construct: CD45.2+F4/80+ cells isolated from the SCG of either B6 or Slc6a2−/− mice; from tissue; sorted CD45+F4/80+ sympathetic neuron-associated macrophages (sympathetic neurons are also present)

MAOa = target: T2, MAOa (Mus musculus, UniProt Q64133); assay: NE content of SAMs and medium in SCG explant cultures, MAOA blocker; type: cell-based; details: ACh-activated SCG explants; 100 μM Clorgyline, 2 hours
T2 construct: CD45.2+F4/80+ cells isolated from the SCG of either B6 or Slc6a2−/− mice; from tissue; sorted CD45+F4/80+ SAMs (neuronal MAOa may also contribute to NE in the medium)
T2 sequence (Q64133 1-526): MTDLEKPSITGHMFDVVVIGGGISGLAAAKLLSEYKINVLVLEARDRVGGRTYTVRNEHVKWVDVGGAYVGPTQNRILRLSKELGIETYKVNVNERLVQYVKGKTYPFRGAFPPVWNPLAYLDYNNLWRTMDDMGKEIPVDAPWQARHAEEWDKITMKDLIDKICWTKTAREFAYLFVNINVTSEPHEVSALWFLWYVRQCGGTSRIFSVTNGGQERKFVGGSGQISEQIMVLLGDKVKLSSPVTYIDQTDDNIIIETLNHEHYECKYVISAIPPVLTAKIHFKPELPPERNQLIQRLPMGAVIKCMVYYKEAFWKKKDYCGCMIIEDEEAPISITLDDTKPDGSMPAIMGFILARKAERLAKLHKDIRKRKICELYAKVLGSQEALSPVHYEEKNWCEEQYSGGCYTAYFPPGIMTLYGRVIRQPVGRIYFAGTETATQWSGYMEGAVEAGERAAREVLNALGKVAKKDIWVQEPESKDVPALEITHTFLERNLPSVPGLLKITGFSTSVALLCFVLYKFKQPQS
Experimental: SCG were removed from 4-6 weeks old mice under a stereomicroscope and placed in Dulbecco's Modified Eagle's medium (DMEM, Invitrogen, Carlsbad, Calif., U.S.A.). Ganglia were cleaned from the surrounding tissue capsule and transferred into 8-well Tissue Culture Chambers (Sarstedt, Nümbrecht, Germany) that were previously coated with poly-D-lysine (Sigma/Aldrich, Steinheim, Germany) in accordance to the manufacturers instructions. Ganglia were then covered with 5 μl of Matrigel (BD Bioscience, San Jose, Calif., U.S.A.) and incubated for 7 min at 37° C. DMEM without phenol red (Invitrogen) supplemented with 10% fetal bovine serum (Invitrogen), 2 mM L-Glutamine (Biowest, Nuaillé, France) and nerve growth factor (Sigma/Aldrich) were subsequently added. 12 SCG explants cultures were prepared per condition. SCG ganglia were cultured for minimum 24 hours prior to further manipulation. […]
Depolarization of sympathetic neurons in TH-Cre/LSLChR2-YFP explant cultures were performed on a Yokogawa CSUX Spinning Disk confocal using the 488 nm laser line and pointing at the region of interest (ROI) for 200 μs. […] NE in the SCG explant culture medium and sorted CD45, F4/80-double positive cells was determined with NE ELISA kit (Labor Diagnostika Nord GmbH, Nordhorn, Germany, cat # BA E-5200). […]

[1] = tested on: superior cervical ganglia sympathetic neurons from GCaMP3+ mice; assay: Intracellular calcium imaging of ACh-stimulated sympathetic neurons; type: cell-based, mouse; details: 15 μM drug for 24 h; 10 μM ACh for 40 s
Experimental: For Ca^2+ experiments, sympathetic neurons obtained from GCaMP3^+ mice. […] At 7 DIV, coverslips with sympathetic neurons from GCaMP3^+ mice were mounted on an inverted microscope with epifluorescent optics (Axiovert 135TV, Zeiss) equipped with a xenon lamp (located at a Lambda DG-4 (Sutter Instrument) and band-pass filter of 450-490 nm wavelengths. Ca^2+ measurements were performed at 37° C., as reported in Jacob et al., 2014(33) Throughout the experiments the Ach was applied focally through a drug filled micropipette placed under visual guidance over a single neuronal cell. Drug release was performed by focal pressure (10 psi for 40 s) through a Toohey Spritzer pressure System Ile (Toohey Company). […] Images were obtained every 250 ms by exciting the preparations at 450-490 nm and the emission wavelength was set to 510 nm. Neurons were imaged with a cooled CCD camera (Photometrics CoolSNAP fx), processed and analysed using the software MetaFluor (Universal laging, West Chester, Pa.). Ca^2+ levels were recorded at the cell body of neurons (manually defined over the cell profile) in the field of view and variations were estimated as changes of the fluorescence signal over the baseline (ΔF/F0=[(Fpost−Frest)/Frest]).

[2] = tested on: SCG sympathetic neurons from C57BL/6 mice; assay: Whole cell patch-clamp electrophysiology of sympathetic neurons
[3] = tested on: LSL-DTR (Control) and TH-cre; LSL-DTR (Symp) mice; assay: High fat diet challenge in Control and sympathectomized (Symp) mice, 6 weeks; type: in vivo, mouse; details: for BW gain: 6 weeks HFD, 0.12 mol/kg daily IP; for Locomotor activity, total distance traveled: 10-min video-tracking, 1 h post-injection; for Plasma Glycerol levels: 2 h post-injection; for Food intake: HFD
Experimental: For detailed characterization refer to Pereira et al. 2017(52). Briefly, TH-cre; LSL-DTR mice were used for this experiment and LSL-DTR mice were used as controls. PEGylated Diphtheria Toxin (PEGyDT) was administered once a day for 8 consecutive days (25 ng/g of BW, IP injections). All following experiments were performed at least 24 h post the last injection.
(§1) Blood glucose was measured using a glucometer (Accu-Check, Roche). Analysis of Insulin, Triglycerides, Glycerol and FFA levels in plasma as performed using Mouse Ultrasensitive Insulin ELISA (Alpco), Triglyceride Quantification Kit (Abcam), Free Glycerol Reagent (Sigma) and Glycerol Standard Solution (Sigma), and Free Fatty Acid Quantification Kit (MAK044, Sigma), respectively according to manufacturer's instructions.
[…]. Tissues were homogenized and sonicated in homogenization buffer (1 N HCl, 1 mM EDTA, 4 mM Sodium metabisulfite), and cellular debris were pelleted by centrifugation at 20,000 g for 10 min at 4° C.). All tissue samples were normalized to total tissue protein concentration.
(§2) After 3 weeks of HFD exposure and treatment, mice were either acclimated to tracking cages for 1 week before starting the 72 h locomotion measurements using the LabMaster tracking system (TSE Systems; Bad Homburg); or filmed for 20-30 min, with a ZEISS optics camera, 1 h post injection inside their normal housing cage, for assessment of total distance traveled. Footage-records were filtered using the video editor Avidemux (Avidemux 2.7.1) and 10 or 15 min distance computations were quantified using the TrackMate tracking plugin from Fiji (Fiji; Wisconsin-Madinson).

C57BL/6 mice [4] = assay: Thermoregulation studies (thermography, rectal probe) during DIO; type: in vivo, mouse; details: 2 h post-injection
Experimental: All measurements were done in ad libitum fed mice 2 h post-injections. Rectal temperature was measured with an electronic thermometer (Precision). BAT and Tail thermographic pictures were taken using a Compact-Infrared-Thermal-Imaging-Camera (FLIR; West Mailing) and FLIR-Tools-Software (FLIR; West Mailing) to quantify local temperatures.

C57BL/6 mice [5] = assay: Acute behaviour and WAT NE content after single IP injection; type: in vivo, mouse
Experimental: NE levels were determined with an NE ELISA kit (Labor Diagnostika Nord GmbH). Tissues were homogenized and sonicated in homogenization buffer (1 N HCl, 1 mM EDTA, 4 mM Sodium metabisulfite), and cellular debris were pelleted by centrifugation at 20,000 g for 10 min at 4° C.). All tissue samples were normalized to total tissue protein concentration.
as §2

C57BL/6 mice [6] = assay: Faecal output and plasma triglycerides during HFD feeding; type: in vivo, mouse
Experimental: as §1
24 h faecal output was collected and weighed. The faeces were washed with 1×PBS and total triglyceride content was extracted by homogenization and boiling, for 2 cycles of 5 min, in 5% NP-40. Triglyceride content was measured using Triglyceride Quantification Kit (Abcam), according to manufacturer's instructions, and normalized to the weight of total faecal output.

C57BL/6 mice [7] = assay: Diet induced obesity, 10 weeks HFD with chronic treatment; type: in vivo, mouse
[8] = fed-state, 2 h post-injection without access to food

T1 sequence (O55192 whole entry): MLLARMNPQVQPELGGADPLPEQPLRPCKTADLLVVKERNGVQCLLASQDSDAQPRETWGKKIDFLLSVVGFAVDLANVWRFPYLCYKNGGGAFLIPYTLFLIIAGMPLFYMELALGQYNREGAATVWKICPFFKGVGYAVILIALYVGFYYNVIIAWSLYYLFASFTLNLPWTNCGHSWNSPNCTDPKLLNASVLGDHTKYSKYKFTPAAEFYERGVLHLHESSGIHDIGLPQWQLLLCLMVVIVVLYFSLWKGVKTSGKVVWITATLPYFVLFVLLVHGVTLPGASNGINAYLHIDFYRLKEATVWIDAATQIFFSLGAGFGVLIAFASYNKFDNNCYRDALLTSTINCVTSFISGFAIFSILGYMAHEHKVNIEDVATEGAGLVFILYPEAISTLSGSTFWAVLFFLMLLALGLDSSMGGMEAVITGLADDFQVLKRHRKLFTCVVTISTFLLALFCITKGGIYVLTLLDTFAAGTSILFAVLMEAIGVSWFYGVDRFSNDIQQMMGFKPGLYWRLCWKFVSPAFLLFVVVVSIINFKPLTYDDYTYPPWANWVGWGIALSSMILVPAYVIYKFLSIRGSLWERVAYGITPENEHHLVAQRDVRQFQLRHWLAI

CNCCC(Oc1ccccc1OC)c1ccccc1 (centres unmarked) [Nisoxetine, Nisoxetine hydrochloride]
NE accumulation in SAMs (Slc6a2; ACh-activated SCG explants, 2 hours): prevented NE accumulation in SAMs | Uptake of NE by SAMs (NE content in CD45+F4/80+ cells) (Slc6a2; optogenetic stimulation of SCG explants): prevented

C#CCN(C)CCCOc1ccc(Cl)cc1Cl [clorgyline, Clorgyline]
Intracellular NE levels in SAMs (MAOa): nearly double intracellular NE levels | NE levels in medium (MAOa): increased NE levels in medium

CC(N)Cc1ccccc1 (centres unmarked) [AMPH, Amphetamine]
ACh-induced intracellular [Ca2+] increase, ΔF/F0 [1]: 1.71±0.05 | Resting membrane potential [2]: −35.70±1.02 mV | Changes in resting membrane potential ([2]; AMPH vs Vehicle, FIGS. 5A, B): no significant changes | Maximum firing frequency ([2]; current-clamp mode): 37.60±1.07 Hz and 41.00±1.43 Hz | NE content in inguinal WAT ([3]; Control mice): 2.58±0.28 ng/mg of total tissue protein | BW gain ([3]; Control mice): 12.67±1.79% | Locomotor activity, total distance traveled ([3]; Control mice): 21.88±1.09 m | Plasma Glycerol levels ([3]; Control mice): 89.70 ± 10.20 µg/mL | Food intake ([3]; Control mice): 2.08 ± 0.25 g/day | NE content in inguinal WAT ([3]; Symp mice): 1.51 ± 0.20 ng/mg | BW gain ([3]; Symp mice): 39.19±4.54% | Locomotor activity, total distance traveled ([3]; Symp mice): 24.30±2.88 m | Plasma Glycerol levels ([3]; Symp mice): 59.07 ± 7.83 µg/mL | Food intake ([3]; Symp mice): 2.00 ± 0.12 g/day | Core body temperature (rectal probe) (C57BL/6 mice [4]; fourth week of HFD): 37.94±0.10 °C | Tail temperature at the tail base (thermography) (C57BL/6 mice [4]; fourth week of HFD): 30.07±0.54 °C | BAT temperature (thermography) (C57BL/6 mice [4]; HFD fed mice, fourth week): 38.25±0.25 °C | Locomotion, total distance traveled (C57BL/6 mice [5]; 15-min video-tracking, 1 h post-injection): 70.45±7.54 m | NE content in iWAT (C57BL/6 mice [5]; 2 h post-injection): 9.69 ± 1.49 ng/mg | NE content in gWAT (C57BL/6 mice [5]; 2 h post-injection, per total tissue protein): 6.63 ± 0.58 ng/mg | Food intake (C57BL/6 mice [5]; 24 h post-injection, 0.12 mol/kg IP): 2.57 ± 0.15 g | Total 24 h faecal output (C57BL/6 mice [6]; HFD feeding): 0.48 ± 0.03 g | Faecal triglycerides (TGs) levels (C57BL/6 mice [6]; HFD feeding, per mg of faeces): 1.89 ± 0.15 nmol/mg | Plasma TGs levels (C57BL/6 mice [6]; [8]): 3.48 ± 0.01 µmol/mL | Locomotor activity (C57BL/6 mice [7]; (a.u.), fourth week of HFD): 53.72±5.27 counts/day | NE levels in the liver (C57BL/6 mice [7]; HFD fed, per total protein): 1.327 ± 0.262 ng/mg | NE levels in the muscle (C57BL/6 mice [7]; HFD fed, per total protein): 0.493 ± 0.030 ng/mg | iWAT adipocyte size (C57BL/6 mice [7]; after 10 weeks of HFD): 1152.0±58.9 μm^2 | iWAT weight, % of total BW (C57BL/6 mice [7]; after 10 weeks of HFD): 0.92±0.13% | NE content in iWAT (C57BL/6 mice [7]; after 10 weeks of HFD and treatment, per total protein): 1.166 ± 0.263 ng/mg | BW gain (C57BL/6 mice [7]; after 10 weeks of HFD, 0.12 mol/kg daily IP): 20.49±2.10% | Daily food intake (C57BL/6 mice [7]; during HFD and treatment): 2.17 ± 0.09 g/day | Circulating plasma insulin levels (C57BL/6 mice [7]; [8]): 0.582 ± 0.020 ng/mL | Plasma Free Fatty Acids (C57BL/6 mice [7]; [8]): 0.766 ± 0.043 µmol/mL | Plasma Glycerol (C57BL/6 mice [7]; [8]): 11.771 ± 1.249 µmol/mL | TGs content in muscle (C57BL/6 mice [7]; per total protein): 11.54 ± 0.17 µmol/mg | TGs content in the liver (C57BL/6 mice [7]; per total protein): 16.23 ± 1.95 µmol/mg
